PubChem BioAssay AID330 (DTP/NCI, 2004)
Values joined by “and” are separate entries in the source; they are usually repeats but may differ in a detail not shown here. Equal values may be shown once. Inconclusive results and toxic doses are left out. The calls were made as follows: active = survival T/C of 150% or more; inactive = T/C below 125% in these data.

System: P388 leukemia ip, CD2F1 mice, survival T/C
Experiment: NCI In Vivo Anticancer Drug Screen. Data for tumor model P388 Leukemia (intraperitoneal) in CD2F1 (CDF1) mice
Conditions: endpoint: median survival time, higher = longer survival
How it was run: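 Mice carrying the transplanted tumor received test compound or vehicle. Survival was recorded in each group, and the value is the treated-group measurement divided by that of the vehicle-treated control group.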

[1] = dose: 60.0 mg/kg/injection, schedule: Q01DX005 (ip), vehicle: saline with Tween-80
[2] = dose: 120.0 mg/kg/injection, schedule: Q01DX005 (ip), vehicle: saline with Tween-80
[3] = dose: 240.0 mg/kg/injection, schedule: Q01DX005 (ip), vehicle: saline with Tween-80
[4] = dose: 25.0 mg/kg/injection, schedule: Q01DX009 (ip), vehicle: saline with Tween-80
[5] = dose: 50.0 mg/kg/injection, schedule: Q01DX009 (ip), vehicle: saline with Tween-80
[6] = dose: 100.0 mg/kg/injection, schedule: Q01DX009 (ip), vehicle: saline with Tween-80
[7] = dose: 200.0 mg/kg/injection, schedule: Q01DX009 (ip), vehicle: saline with Tween-80
[8] = dose: 50.0 mg/kg/injection, schedule: Q01DX009 (ip), vehicle: saline
[9] = dose: 100.0 mg/kg/injection, schedule: Q01DX009 (ip), vehicle: saline
[10] = dose: 200.0 mg/kg/injection, schedule: Q01DX009 (ip), vehicle: saline
[11] = dose: 50.0 mg/kg/injection, schedule: Q01DX005 (ip), vehicle: saline with Tween-80
[12] = dose: 100.0 mg/kg/injection, schedule: Q01DX005 (ip), vehicle: saline with Tween-80
[13] = dose: 200.0 mg/kg/injection, schedule: Q01DX005 (ip), vehicle: saline with Tween-80
[14] = dose: 50.0 mg/kg/injection, schedule: Q01DX009 (ip), vehicle: Klucel (hydroxypropylcellulose) (HPC)
[15] = dose: 100.0 mg/kg/injection, schedule: Q01DX009 (ip), vehicle: Klucel (hydroxypropylcellulose) (HPC)
[16] = dose: 50.0 mg/kg/injection, schedule: Q01DX005 (ip), vehicle: Klucel (hydroxypropylcellulose) (HPC)
[17] = dose: 100.0 mg/kg/injection, schedule: Q01DX005 (ip), vehicle: Klucel (hydroxypropylcellulose) (HPC)
[18] = dose: 200.0 mg/kg/injection, schedule: Q01DX005 (ip), vehicle: Klucel (hydroxypropylcellulose) (HPC)

Measured: T/C

CC(=O)c1c(-c2ccccc2)noc1-c1ccccc1
inactive: dose: 100.0 mg/kg/injection, schedule: Q04DX003 (ip), vehicle: saline 102 % of control | dose: 200.0 mg/kg/injection, schedule: Q04DX003 (ip), vehicle: saline 102 % of control | dose: 400.0 mg/kg/injection, schedule: Q04DX003 (ip), vehicle: saline 101 % of control

O=C1NC(=O)C(Cc2ccccc2)(Cc2ccccc2)S1
inactive: [1] 100 % of control | [2] 103 % of control | [3] 96 % of control

O=c1sc2ccccc2n1CCCl
inactive: [4] 112 % of control | [5] 110 % of control | [6] 114 % of control | [7] 103 % of control

Oc1ccc[nH]c1=S
inactive: dose: 12.5 mg/kg/injection, schedule: Q01DX009 (ip), vehicle: saline 104 % of control and 105 % of control

CCCCCCCCCCCCCCCCN(C(C)C)S(=O)(=O)c1ccc(Cl)c([N+](=O)[O-])c1
inactive: dose: 50.0 mg/kg/injection, schedule: Q04DX003 (ip), vehicle: saline sonified 90 % of control | dose: 100.0 mg/kg/injection, schedule: Q04DX003 (ip), vehicle: saline sonified 95 % of control | dose: 200.0 mg/kg/injection, schedule: Q04DX003 (ip), vehicle: saline sonified 95 % of control

CC(=O)Nc1cc(NC(C)=O)c(N=O)c(NC(C)=O)n1
inactive: [8] 100 % of control | [9] 99 % of control | [10] 91 % of control

CCOc1ccc(C(C)c2cc3c(cc2OCC(=O)O)OCO3)cc1 (centres undefined)
inactive: [11] 109 % of control | [12] 90 % of control

O=C(Nc1ccc(Cl)c(Cl)c1)Sc1ccc(Cl)cc1
inactive: [11] 113 % of control | [12] 119 % of control | [13] 112 % of control

NNC(=O)C1CCN1C(c1ccccc1)c1ccccc1 (centres undefined)
inactive: dose: 12.5 mg/kg/injection, schedule: Q01DX009 (ip), vehicle: Klucel (hydroxypropylcellulose) (HPC) 106 % of control | dose: 25.0 mg/kg/injection, schedule: Q01DX009 (ip), vehicle: Klucel (hydroxypropylcellulose) (HPC) 102 % of control | [14] 102 % of control | [15] 95 % of control

CC(C)(C)C(=O)CS(=O)(=O)CC(=O)C(C)(C)C
inactive: [4] 112 % of control | [5] 108 % of control | [6] 103 % of control

C=C1C(=O)C23[C@H](O)C1CC[C@H]2[C@]12COC3(O)[C@@H](O)[C@@H]1C(C)(C)CC[C@@H]2O
inactive: dose: 6.25 mg/kg/injection, schedule: Q01DX009 (ip), vehicle: saline with Tween-80 113 % of control | dose: 8.0 mg/kg/injection, schedule: Q01DX009 (ip), vehicle: saline with Tween-80 106 % of control | dose: 9.0 mg/kg/injection, schedule: Q01DX009 (ip), vehicle: saline with Tween-80 117 % of control | dose: 12.5 mg/kg/injection, schedule: Q01DX009 (ip), vehicle: saline with Tween-80 104 % of control | [4] 104 % of control | dose: 27.0 mg/kg/injection, schedule: Q01DX009 (ip), vehicle: saline with Tween-80 121 % of control

CC1=NN(c2ccccc2)C(=O)C1=Nc1c(C)[nH]n(-c2ccccc2)c1=O
inactive: dose: 15.0 mg/kg/injection, schedule: Q01DX009 (ip), vehicle: saline with Tween-80 103 % of control | dose: 30.0 mg/kg/injection, schedule: Q01DX009 (ip), vehicle: saline with Tween-80 101 % of control | [11] 114 % of control and 96 % of control | dose: 60.0 mg/kg/injection, schedule: Q01DX009 (ip), vehicle: saline with Tween-80 105 % of control | [12] 104 % of control and 102 % of control | [13] 98 % of control and 110 % of control

CNC(=S)N/N=C(/C)CSCC(=O)OC
inactive: [8] 100 % of control | [9] 92 % of control | [10] 91 % of control

Cc1ccc([N+](=O)[O-])cc1NC(=O)NNC(=O)CNC(=O)Nc1cccc(C(F)(F)F)c1
inactive: [1] 95 % of control | [2] 96 % of control | [3] 100 % of control

Cc1c(-c2ccccc2)noc1-n1nnc2ccccc2c1=O
inactive: [1] 100 % of control | [2] 100 % of control | [3] 89 % of control

CN1c2ccccc2C2=C(C3=C(CS2)C(=O)CCS3)S1(=O)=O
inactive: dose: 100.0 mg/kg/injection, schedule: Q01DX001 (ip), vehicle: saline with Tween-80 100 % of control | dose: 200.0 mg/kg/injection, schedule: Q01DX001 (ip), vehicle: saline with Tween-80 99 % of control | dose: 400.0 mg/kg/injection, schedule: Q01DX001 (ip), vehicle: saline with Tween-80 100 % of control

CC(C)c1nccn1Cc1ccc(Cl)cc1Cl
inactive: [1] 88 % of control | [2] 99 % of control

COC1=CC(C)C2CC3OC(=O)CC4C(C)=C(OC)C(=O)C(C2(C)C1=O)C34C (centres undefined)
inactive: [16] 95 % of control | [17] 101 % of control | [18] 101 % of control

CSC(/C=N\O)=N/O
inactive: [14] 88 % of control | [15] 106 % of control | dose: 200.0 mg/kg/injection, schedule: Q01DX009 (ip), vehicle: Klucel (hydroxypropylcellulose) (HPC) 109 % of control

CNC1C(c2ccc(C)cc2)=NN(c2ccccc2)C1c1ccccc1 (centres undefined)
inactive: dose: 100.0 mg/kg/injection, schedule: Q01DX001 (ip), vehicle: saline sonified 100 % of control | dose: 200.0 mg/kg/injection, schedule: Q01DX001 (ip), vehicle: saline sonified 100 % of control | dose: 400.0 mg/kg/injection, schedule: Q01DX001 (ip), vehicle: saline sonified 105 % of control

C[Si](C)(C)c1ccccn1
inactive: [1] 108 % of control | [2] 103 % of control | [3] 113 % of control

CSC(SC)(SC)C(=O)N(C)C
inactive: [4] 95 % of control | [5] 93 % of control | [6] 96 % of control

CC(C)=NOCCC#N
inactive: dose: 60.0 mg/kg/injection, schedule: Q01DX005 (ip), vehicle: saline 99 % of control | dose: 120.0 mg/kg/injection, schedule: Q01DX005 (ip), vehicle: saline 99 % of control | dose: 240.0 mg/kg/injection, schedule: Q01DX005 (ip), vehicle: saline 101 % of control

COC1(OC)C2C=CC1CC2
inactive: [5] 107 % of control and 116 % of control | [6] 101 % of control | [7] 109 % of control

ClCCCCCCOC1CCCCO1 (centres undefined)
inactive: [5] 110 % of control | [6] 106 % of control | [7] 97 % of control

Cc1ccc(NC(=S)SCc2ccc(Cl)c(Cl)c2)cc1Cl
inactive: dose: 50.0 mg/kg/injection, schedule: Q01DX009 (ip), vehicle: suspension in saline 112 % of control | dose: 100.0 mg/kg/injection, schedule: Q01DX009 (ip), vehicle: suspension in saline 115 % of control | dose: 200.0 mg/kg/injection, schedule: Q01DX009 (ip), vehicle: suspension in saline 116 % of control

CC1=C/C(=C(\c2cc(C)c(O)c(C(=O)O)c2)c2c(Cl)cccc2Cl)C=C(C(=O)O)C1=O
inactive: [11] 103 % of control | [12] 100 % of control | [13] 100 % of control

COc1cc(C(=O)C(C=O)c2ccccc2)c([N+](=O)[O-])cc1OC (centres undefined)
inactive: [16] 94 % of control | [17] 98 % of control | [18] 92 % of control

O=C(O)CC1SC2(C(=O)N(Cc3ccccc3)c3ccccc32)N(c2ccccc2)C1=O (centres undefined)
inactive: [11] 89 % of control | [12] 95 % of control | [13] 89 % of control

c1ccc2c(c1)N=NN1CCCOC21 (centres undefined)
inactive: [1] 100 % of control | [2] 95 % of control | [3] 99 % of control
